Measurements as given in patent US20240059740A1, “CYCLIC PEPTIDES AND USES THEREOF” (PRE[…] INC., priority 2020, published 2024).
Residues, ends and D or L forms follow the SMILES beside them.

Columns and labels:
Type in all cases: cell-based, human
MMP-2 = test: Gelatin zymography of conditioned media, MMP-2 production; settings: for metalloprotease production, MMP-2: compared to control containing no peptide
Description: To assess whether the peptide SEQ ID NO.1 impacted MMP-2, MMP-9 and uPA production Zymography was used.
Zymography is a technique for studying hydrolytic enzymes on the basis of substrate degradation. The in-gel zymography hydrolytic enzymes are separated by their molecular weights and detected by their ability to degrade a substrate. To detect the activity of MMP-2 and MMP-9 in various cell lines, conditioned media were collected in 3 independent experiments and analysed by gelatin zymography to quantify the level of gelatin digestion, which reflects MMP-2 and MMP-9 activity and production. Casein-Plasminogen zymography was conducted to determine the activity level of uPA in the conditioned medium from various cell lines. Active uPA converts plasminogen into plasmin which then digests casein, thus clear bands where digestion of casein have occurred indirectly represent uPA activity.
The effect of the peptides on matrix protease production was tested using in-gel zymography. If the substrate included in the gel is gelatin, the enzymes detected are gelatinases: MMP-2 and MMP-9 (the latter is often of low abundance). If the gel contains casein and plasminogen, the enzymes tested are urokinase plasminogen activators (uPA); uPA is a therapeutic target in GBM.
An equal amount of protein from each sample was mixed with 5 μL of Laemmli buffer (0.01% Bromophenol Blue (W/V), 5% SDS (W/V), 22% glycerol (V/V), 14% 0.5 M Tris pH 6.8 (V/V)) and loaded onto a 10% polyacrylamide gel co-polymerized with 1 mg/ml of gelatin, and electrophoresed at 120 V for 2 hours on ice. The gel was incubated in […] solution (Triton X-100 2.5% (V/V), 1 M Tris pH 7.5 5% (V/V), 0.5 M CaCl2 1% (W/V) at room temperature overnight on an orbital shaker. The gel was incubated in a second solution for 3 hours at 37° C. The gel was then stained with Coomassie blue solution (Coomassie blue 0.25%, methanol 45%, acetic acid 10%) and destained in methanol 25% (V/V), acetic acid 10% (V/V) destaining solution until clear bands against the dark background appeared around 72 kDa and 95 kDa, representing MMP-2 and MMP-9 activity, respectively. Clear bands around 50 kDa appeared against the dark background representing uPA activity. The gels were scanned, and uPA, MMP-2 and MMP-9 were quantified by densitometry using NIH Image J software.
SEQ ID NO.1 was compared to a control containing no peptide to evaluate whether the peptide can reduce the production of matrix proteinases. […] This could be confirmed using a MMP-9 quantification kit, and altered production by a transcriptional mechanism can be unveiled using qRT-PCR.

Snail-2 mRNA = test: Real time RT-PCR, Snail-2 mRNA expression
Description: (§1) The real-time reverse transcription polymerase chain reaction (RT-PCR) uses fluorescent reporter molecules to monitor the production of amplification products during each cycle of the PCR reaction. This combines the nucleic acid amplification and detection steps into one homogeneous assay and use of appropriate chemistries and data analysis eliminates the need for Southern blotting or DNA sequencing for amplicon identification. Its simplicity, specificity and sensitivity, together with its potential for high throughput and the ongoing introduction of new chemistries, more reliable instrumentation and improved protocols, has made real-time RT-PCR the benchmark technology for the detection and/or comparison of RNA levels.’
(§2) In order to detect and quantify the expression of specific genes at mRNA level, real-time reverse transcriptase polymerase chain reaction (Real time RT-PCR) was performed. Total RNA of samples was isolated and purified using the PureLink® RNA Mini Kit (Life technologies). The concentration of total RNA was detected by NanoDrop 2000 Spectrophotometer (Thermo Scientific). The total RNA (2000 ng) was reverse transcribed using the High-Capacity cDNA Reverse Transcription Kit (Applied Biosystems™).
(§3) The primers of target genes were TaqMan™ Gene Expression Assay for human PLAU (Hs01547054_m1), MMP-2 (Hs01548727_m1), MMP-9 (Hs00957562_m1), Snail-1 (Hs00195591_m1), Snail-2 (Hs00161904_m1), N-cadherin (Hs00983056_m1) and Twist (Hs01675818_s1). Relative quantification was done by reference to 18S ribosomal RNA (18S rRNA) and analysed using the comparative critical threshold (Ct) method
(§4) The mRNA expression of MMPs was measured using qRT-PCR. This was tested three independent times; the results are shown in Tables 9, 10 and 11 for U251, U87 cells and O81024 cells respectively. Results are reported as percent of the control cells (no treatment). Both MMP-2 and uPA were decreased in U251 by SEQ ID NO.1.
Epithelial-mesenchymal transition (EMT) is the process by which epithelial cells acquire a migratory (metastatic) phenotype and so EMT is associated with cancer metastasis, cancer cell stemness, chemoresistance and immune resistance. Therefore, the determination of the mRNA expression of EMT markers is a valuable tool to evaluate invasion potential of cancer cells.
The ‘Snail’ superfamily is involved in cell differentiation and survival, two processes central in cancer research. Snail-1 has a pivotal role in the regulation of epithelial-mesenchymal transition (EMT) and Snail-1 expression is associated with poor prognosis in metastatic cancer, and tumours with elevated Snail-1 expression are harder to treat. […]

MMP-2 mRNA = test: Real time RT-PCR, MMP-2 mRNA expression
Description: as §1, §2, §3, §4

[1] = 081024 cells, baseline expression level = 1
[2] = U87 cells, baseline expression level = 1

CC(C)C[C@@H]1NC(=O)[C@H](C)NC(=O)[C@@H](NC(=O)[C@@H]2CCCN2C(=O)[C@@H](N)CC(C)C)CSSC(C)(C)CNC(=O)CC[C@@H](C(=O)N[C@@H](CCCNC(=N)N)C(N)=O)NC(=O)[C@H](CC(=O)O)NC(=O)[C@H](CC(N)=O)NC1=O [SEQ ID NO: 1, Leu-Pro-c(SSA*-Ala-Leu-Asn-Asp-Glu)-Arg-NH2] (HELM PEPTIDE1{L.P.C.A.L.N.D.E.R.[am]}|CHEM1{[CC(C)(CN[*:2])S[*:1]]}$PEPTIDE1,CHEM1,3:R3-1:R1|PEPTIDE1,CHEM1,8:R3-1:R2$$$V2.0; N-terminus assumed)
metalloprotease production, MMP-2 (MMP-2; 081024 cells): 106.4
metalloprotease production, MMP-2 (MMP-2; U87 cells): 102.1
metalloprotease production, MMP-2 (MMP-2; U251 cells): 110.2
production of MMP-2 (overall, in words) (MMP-2; overall, all cell lines): did not decrease
mRNA expression, Snail-2 (Snail-2 mRNA; [1]): 1.01
mRNA expression, Snail-2 (Snail-2 mRNA; [2]): 0.94
mRNA expression, Snail-2 (Snail-2 mRNA; U251 cells, relative to control (no treatment)): 0.75
mRNA expression, Snail-2 (in words) (Snail-2 mRNA; cell line not specified): non-statistical decrease in expression
mRNA expression, MMP-2 (MMP-2 mRNA; [1]): 0.91
mRNA expression, MMP-2 (MMP-2 mRNA; [2]): 0.84
mRNA expression, MMP-2 (MMP-2 mRNA; U251 cells, relative to control (no treatment), listed as SEQ ID NO. 1): 0.72
mRNA expression, MMP-2 (MMP-2 mRNA; U251 cells, relative to control (no treatment), listed as SEQ ID NO.1): decreased
